From patent US11304944B2, “MetAP2 inhibitors and methods of treating obesity” (SynDevRx, Inc., priority 2013, dated 2022)

Legend:
DIO Levin rats [1] = assay: In vivo testing DIO Levin rats: weight changes, food consumption, insulin, leptin levels
Protocol: CKD-732 as referred to herein is the hemitartrate salt of the following structure:
Test articles were administered subcutaneously on an every 4 day (q4d) schedule in a diet-induced obesity (DIO) Levin-DS rat model. […] A dietary intervention (Standard Chow, Labdiet 5001; 3.4 kcal/g) was included to compare to the drug interventions. Upon arrival at three weeks of age, the male rats received ad libitum pellets of Harlan Diet TD.06414, 60% of calories from fat, 21% of calories from carbohydrate; 5.1 kcal/g. Prior to dosing the rats were randomized into groups of three animals with an average body weight of 595 gm. […] Compound 1 in the form of the hemitartrate and CKD-732 in the form of the hemitartrate were dissolved in ethanol prior to dilution with vehicle. All doses were administered at a volume of 5.0 ml/kg. […] On day 1, first dose, the rats were 14 weeks of age. Also on day 1, Group 2 was switched from the high fat diet to a standard chow diet; the remaining groups were maintained on a high fat diet for the duration of the study.
(§1) Animals were weighed every other day. Food consumption was measured weekly. On an approximately weekly basis throughout the study, blood samples were taken for assessment of serum chemistries including glucose and insulin. On Day 48 all rats underwent a 4 hour fasted Oral Glucose Tolerance Test (OGTT). Animals were dosed orally (per os, PO) at 8 mL/kg 25% glucose (2 g/kg). On day 68, gross pathology was performed to determine body composition.

DIO C57Bl6 mice = assay: Efficacy of various compounds in DIO mouse model (body weight versus time); format: in vivo; conditions: for BW change vs. vehicle: day 26
Protocol: On study day 1 animals were randomized into groups so that the average weight of the mice in each group was 47 g. The mice were treated with either phosphate buffered saline (vehicle), or compounds as listed in Table 19 dissolved in vehicle (dorsal, subcutaneous administration).

DIO Levin rats [2] = assay: Oral Glucose Tolerance Test (OGTT) Day 48 and HOMA-ir in DIO Levin rats; format: in vivo; conditions: for Blood Glucose, Time 15 / Blood Glucose, Time 30 / Blood Glucose, Time 60 / Blood Glucose, Time 90 / Blood Glucose, Time 120: OGTT; for BW: at OGTT;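 on Blood Glucose pre-OGTT: blood glucose in mg/dL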;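 on Blood Glucose, Time 120: blood glucose in mg/dL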;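 on Blood Glucose, Time 15: blood glucose in mg/dL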;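 on Blood Glucose, Time 30: blood glucose in mg/dL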;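 on Blood Glucose, Time 60: blood glucose in mg/dL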;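 on Blood Glucose, Time 90: blood glucose in mg/dL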
Protocol: as §1

[3] = 0.6 mg/kd (so in the source) q4d sc
[4] = 03 mg/kg (so in the source) q4d sc

poly[HPMA-co-MA-GFLG-N-(trans-4-aminocyclohexyl)carbamoylfumagillol] [Compound 16]
Group Average Food Consumption Day 16-23 (DIO Levin rats [1]; 6 mg, q7d sc): 43.9 g | Group Average Food Consumption Day 24-30 (DIO Levin rats [1]; 6 mg, q7d sc): 139.8 g | Group Average Food Consumption Day 31-36 (DIO Levin rats [1]; 6 mg, q7d sc): 117.4 g | Group Average Food Consumption Day 37-43 (DIO Levin rats [1]; 6 mg, q7d sc): 126.3 g | Group Average Food Consumption Day 44-50 (DIO Levin rats [1]; 6 mg, q7d sc): 81.2 g | Group Average Food Consumption Day 51-57 (DIO Levin rats [1]; 6 mg, q7d sc): 107.5 g | Group Average Food Consumption Day 58-63 (DIO Levin rats [1]; 6 mg, q7d sc): 107.7 g | Group Average Food Consumption Day 63-68 (DIO Levin rats [1]; 6 mg, q7d sc): 19.8 g | Leptin Levels Day 29 (DIO Levin rats [1]; 6 mg, q7d sc): 2.00 | Leptin Levels Pre-dose (DIO Levin rats [1]; 6 mg, q7d sc): 3.93 | Leptin Levels, Day 29, % Change from Baseline (DIO Levin rats [1]; 6 mg, q7d sc): −49.2% | Final BW (DIO Levin rats [1]; 6.0 mg/kg q7d sc, after 68 days, 60% fat diet): 596.7 g | change in leptin levels from baseline versus dose (DIO Levin rats [1]; FIG. 18): dose-dependent response | weight loss versus fumagillol exposure, compared to Compound 1 or CKD-732 (DIO Levin rats [1]; day 68, FIG. 12): greater weight loss with significantly lower fumagillol exposure | Group Avg. BW, Study Day 1 (DIO C57Bl6 mice; 2 mg/kg q4d sc): 47.0 g | Group Avg. BW, Study Day 7 (DIO C57Bl6 mice; 2 mg/kg q4d sc): 43.4 g | Group Avg. BW, Study Day 15 (DIO C57Bl6 mice; 2 mg/kg q4d sc): 43.2 g | Group Avg. BW, Study Day 21 (DIO C57Bl6 mice; 2 mg/kg q4d sc): 42.0 g | Group Avg. BW, Study Day 26 (DIO C57Bl6 mice; 2 mg/kg q4d sc): 41.7 g | BW change vs. vehicle (DIO C57Bl6 mice; 2 mg/kg q4d sc): −9.6% | Group Avg. BW, Study Day 1 (DIO C57Bl6 mice; 12 mg/kg q8d sc): 47.0 g | Group Avg. BW, Study Day 7 (DIO C57Bl6 mice; 12 mg/kg q8d sc): 41.3 g | Group Avg. BW, Study Day 15 (DIO C57Bl6 mice; 12 mg/kg q8d sc): 38.3 g | Group Avg. BW, Study Day 21 (DIO C57Bl6 mice; 12 mg/kg q8d sc): 36.2 g | Group Avg. BW, Study Day 26 (DIO C57Bl6 mice; 12 mg/kg q8d sc): 38.0 g | BW change vs. vehicle (DIO C57Bl6 mice; 12 mg/kg q8d sc): −17.5% | HOMA-ir (Insulin Sensitivity) 15 min (DIO Levin rats [2]; 0.3 mg/kg q4d sc): 40.1 | HOMA-ir (Insulin Sensitivity) 30 min (DIO Levin rats [2]; 0.3 mg/kg q4d sc): 10.8 | HOMA-ir (Insulin Sensitivity) Pre-dose (DIO Levin rats [2]; 0.3 mg/kg q4d sc): 14.6 | Blood Glucose pre-OGTT (DIO Levin rats [2]; [3]): 121 mg/dL | Blood Glucose, Time 15 (DIO Levin rats [2]; [3]): 150 mg/dL | Blood Glucose, Time 30 (DIO Levin rats [2]; [3]): 148 mg/dL | Blood Glucose, Time 60 (DIO Levin rats [2]; [3]): 149 mg/dL | Blood Glucose, Time 90 (DIO Levin rats [2]; [3]): 143 mg/dL | Blood Glucose, Time 120 (DIO Levin rats [2]; [3]): 150 mg/dL | BW (DIO Levin rats [2]; [3]): 662 g | HOMA-ir (Insulin Sensitivity) 15 min (DIO Levin rats [2]; 1 mg/kg q4d sc): 50.1 | HOMA-ir (Insulin Sensitivity) 30 min (DIO Levin rats [2]; 1 mg/kg q4d sc): 18.1 | HOMA-ir (Insulin Sensitivity) Pre-dose (DIO Levin rats [2]; 1 mg/kg q4d sc): 16.4 | Blood Glucose pre-OGTT (DIO Levin rats [2]; [4]): 121 mg/dL | Blood Glucose, Time 15 (DIO Levin rats [2]; [4]): 156 mg/dL | Blood Glucose, Time 30 (DIO Levin rats [2]; [4]): 145 mg/dL | Blood Glucose, Time 60 (DIO Levin rats [2]; [4]): 157 mg/dL | Blood Glucose, Time 90 (DIO Levin rats [2]; [4]): 149 mg/dL | Blood Glucose, Time 120 (DIO Levin rats [2]; [4]): 147 mg/dL | BW (DIO Levin rats [2]; [4]): 697 g | Blood Glucose pre-OGTT (DIO Levin rats [2]; 3 mg/kg q4d sc): 120 mg/dL | HOMA-ir (Insulin Sensitivity) 15 min (DIO Levin rats [2]; 3 mg/kg q4d sc): 13.7 | HOMA-ir (Insulin Sensitivity) 30 min (DIO Levin rats [2]; 3 mg/kg q4d sc): 4.6 | HOMA-ir (Insulin Sensitivity) Pre-dose (DIO Levin rats [2]; 3 mg/kg q4d sc): 9.2 | Blood Glucose, Time 15 (DIO Levin rats [2]; 3 mg/kg q4d sc): 157 mg/dL | Blood Glucose, Time 30 (DIO Levin rats [2]; 3 mg/kg q4d sc): 144 mg/dL | Blood Glucose, Time 60 (DIO Levin rats [2]; 3 mg/kg q4d sc): 140 mg/dL | Blood Glucose, Time 90 (DIO Levin rats [2]; 3 mg/kg q4d sc): 127 mg/dL | Blood Glucose, Time 120 (DIO Levin rats [2]; 3 mg/kg q4d sc): 129 mg/dL | BW (DIO Levin rats [2]; 3 mg/kg q4d sc): 582 g | Blood Glucose pre-OGTT (DIO Levin rats [2]; 6 mg, q7d sc): 128 mg/dL | HOMA-ir (Insulin Sensitivity) 15 min (DIO Levin rats [2]; 6 mg, q7d sc): 37.2 | HOMA-ir (Insulin Sensitivity) 30 min (DIO Levin rats [2]; 6 mg, q7d sc): 3.5 | HOMA-ir (Insulin Sensitivity) Pre-dose (DIO Levin rats [2]; 6 mg, q7d sc): 12.0 | Blood Glucose, Time 15 (DIO Levin rats [2]; 6 mg, q7d sc): 161 mg/dL | Blood Glucose, Time 30 (DIO Levin rats [2]; 6 mg, q7d sc): 141 mg/dL | Blood Glucose, Time 60 (DIO Levin rats [2]; 6 mg, q7d sc): 145 mg/dL | Blood Glucose, Time 90 (DIO Levin rats [2]; 6 mg, q7d sc): 145 mg/dL | Blood Glucose, Time 120 (DIO Levin rats [2]; 6 mg, q7d sc): 138 mg/dL | BW (DIO Levin rats [2]; 6 mg, q7d sc): 604 g
